Laboratory results as given in PubChem BioAssay (NCI).
Several values for one entry are separate records, joined by “and”; a condition that tells them apart may be missing. Identical values can stand only once.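 Step 1: Grow cells in 96-well plates. Step 2: Expose to compound for 48 hours at 5 concentrations. Step 3: Interpolate endpoints linearly; if unreached, use highest concentration. Abbreviation: GI50, concentration required for 50% inhibition of growth. TGI: total growth inhibition.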

What was measured:
Assay in all cases: inhibition of tumour cell growth, NCI panel, 48 h
MDA-MB-435 = test system: MDA-MB-435
DLD-1 colon = test system: DLD-1 colon
DMS 273 small cell lung = test system: DMS 273 small cell lung
HOP-18 NSCLC = test system: HOP-18 NSCLC
M19-MEL melanoma = test system: M19-MEL melanoma
SNB-78 CNS = test system: SNB-78 CNS
XF 498 CNS = test system: XF 498 CNS
MDA-N = test system: MDA-N

CC(C)N=c1cc2n(-c3ccc(Cl)cc3)c3ccccc3nc-2cc1Nc1ccc(Cl)cc1
GI50 (MDA-MB-435): 1.04 µM and 1.8 µM
TGI (MDA-MB-435): 2.74 µM and 4.46 µM

CC(=O)c1sc(-c2nc(C)c(C(=O)/C=C\c3ccc(/C=C\C(=O)c4sc(-c5nc(C)c(C(C)=O)s5)nc4C)cc3)s2)nc1C
TGI (DLD-1 colon): > 100 µM
TGI (DMS 273 small cell lung): > 100 µM
TGI (HOP-18 NSCLC): > 100 µM
TGI (M19-MEL melanoma): > 100 µM
TGI (SNB-78 CNS): > 100 µM
TGI (XF 498 CNS): > 100 µM

Cc1cc(N/N=C/c2nc(-c3ccc(Br)cc3)oc2C)c2cc(Br)ccc2n1
GI50 (MDA-MB-435): 2.25 µM
TGI (MDA-MB-435): 5.34 µM

Cc1cc(NS(=O)(=O)c2ccc(Nc3c4ccccc4nc4c(C(=O)NCCN(C)C)cccc34)cc2)no1
TGI (DLD-1 colon): > 100 µM
TGI (DMS 273 small cell lung): > 100 µM
TGI (M19-MEL melanoma): > 100 µM
TGI (SNB-78 CNS): 80.4 µM
TGI (XF 498 CNS): > 100 µM

Nc1nc(SN=Nc2ccc(S(N)(=O)=O)cc2)c2[nH]cnc2n1
GI50 (MDA-MB-435): 0.39 µM
TGI (MDA-MB-435): > 100 µM

CCc1ccccc1NC(=O)c1sc2nc3c(cc2c1N)C(=O)CCC3
GI50 (MDA-MB-435): 0.0598 µM
TGI (MDA-MB-435): 0.336 µM

CC(=O)/C=C/c1ccc(C#Cc2ccccc2)s1
GI50 (MDA-MB-435): 13.8 µM
TGI (MDA-MB-435): 29.5 µM

N#C/C(=C/N1CCN(C(=O)c2ccco2)C1=S)C(=O)c1ccccc1
GI50 (MDA-MB-435): 11 µM
TGI (MDA-MB-435): 60.6 µM

COc1ccc(-c2c[nH]c(=S)n2-c2ccc(OC)cc2)cc1
GI50 (MDA-MB-435): > 50 µM
TGI (MDA-MB-435): > 50 µM

CCC(C)(C)c1ccc(OCCCCCCN2CCNCC2)cc1
GI50 (MDA-MB-435): 1.54 µM
TGI (MDA-MB-435): 3.09 µM

CCn1c(CO)nn(-c2cc(O[C@@H](C)C(F)(F)F)c(C(=O)Nc3c(F)cccc3Cl)cc2F)c1=O
GI50 (MDA-MB-435): < 0.0176 µM
TGI (MDA-MB-435): > 100 µM

CC1=NN(C(=O)CC(=O)N(C(=O)c2ccccc2Cl)c2ccc(C)cc2)C(=O)C1N=Nc1ccc([N+](=O)[O-])cc1 (stereo unspecified)
TGI (DLD-1 colon): > 66.1 µM
TGI (DMS 273 small cell lung): > 95.7 µM
TGI (HOP-18 NSCLC): > 100 µM
TGI (SNB-78 CNS): > 100 µM
TGI (XF 498 CNS): > 100 µM

N.N.N.N.[Cl-].[Co+3].[N-]=[N+]=[N-].[N-]=[N+]=[N-]
GI50 (DLD-1 colon): > 100 µM
TGI (DLD-1 colon): > 100 µM
GI50 (DMS 273 small cell lung): > 100 µM
TGI (DMS 273 small cell lung): > 100 µM
GI50 (SNB-78 CNS): > 100 µM
TGI (SNB-78 CNS): > 100 µM

O=[N+]([O-])c1ccc2c(c1)C(c1ccccc1Cl)=Nc1cn[nH]c1N2
GI50 (MDA-MB-435): 15.1 µM
TGI (MDA-MB-435): > 25 µM

Cc1cc[c-]cc1.Fc1c[c-]c(-c2ccccn2)c(F)c1.[Pt+2].c1ccc(P(C[PH+](c2ccccc2)c2ccccc2)c2ccccc2)cc1
GI50 (MDA-MB-435): 2.18 µM
TGI (MDA-MB-435): 6.2 µM

O=C(/C=C/c1cc(CN2CCOCC2)c(O)c2ncccc12)c1cc(CN2CCOCC2)c(O)c2ncccc12
GI50 (MDA-MB-435): < 0.0211 µM
TGI (MDA-MB-435): > 100 µM

Cc1cc(S(=O)(=O)N/N=C(\Sc2cc(Cl)c(C)cc2S(N)(=O)=O)c2ccc(Cl)cc2)c(Cl)cc1Cl
GI50 (MDA-MB-435): > 100 µM
TGI (MDA-MB-435): > 100 µM

CC(C)S(=O)(=O)c1ccccc1Nc1nc(Nc2cccc(NC(=O)CN)c2)ncc1Cl
GI50 (MDA-MB-435): 0.553 µM
TGI (MDA-MB-435): 2.16 µM

CC(=O)O[C@H](C[C@H](C(C)C)N(C)C(=O)[C@@H](NC(=O)[C@H]1CCCCN1C)C(C)C)c1nc(C(=O)N[C@@H](Cc2ccccc2)C[C@H](C)C(=O)O)c(CCOCc2ccccc2)s1
GI50 (MDA-MB-435): < 0.001 µM
TGI (MDA-MB-435): < 0.001 µM

C[C@]12CC[C@H](O)C[C@H]1CC[C@@H]1[C@@H]2CC[C@]2(C)[C@@H](C3=CC(=O)OC3)CC[C@]12O
TGI (MDA-MB-435): 1.02 µM
TGI (MDA-N): 0.806 µM

COCCOc1cnc2ccn([C@H](C)c3nnc4c(F)cc(-c5cnn(C)c5)cn34)c(=O)c2c1
GI50 (MDA-MB-435): > 100 µM
TGI (MDA-MB-435): > 100 µM

CN(C)C(=S)/N=c1\ss/c(=N\C(=S)N(C)C)n1-c1ccc(Cl)c(Cl)c1
TGI (DMS 273 small cell lung): > 100 µM
TGI (M19-MEL melanoma): > 100 µM
TGI (SNB-78 CNS): > 100 µM

COc1ccc2c(c1)[C@@]13CCCC[C@H]1[C@@H](C2)N(C)CC3=O
TGI (MDA-MB-435): 42.7 µM
TGI (MDA-N): 28.9 µM

CN(CCCNC(=O)Cc1ccc2ccc3cccc4ccc1c2c34)CCCNc1cc(-c2ccc3ccccc3c2)nc2ccccc12
GI50 (MDA-MB-435): 1.44 µM
TGI (MDA-MB-435): 3.05 µM

O=c1[nH]cnc2cccc(Cl)c12
TGI (MDA-N): > 100 µM

CCCCC1(CN2CCOCC2)S/C(=N/c2nc(CC(=O)OCC)cs2)NC1=O (stereo unspecified)
GI50 (MDA-MB-435): 30.3 µM
TGI (MDA-MB-435): > 100 µM

COC(=O)OCC1OC(N2C(=O)NC(=O)C(Br)C2N=[N+]=[N-])CC1OC(=O)OC (stereo unspecified)
TGI (DLD-1 colon): > 100 µM
TGI (DMS 273 small cell lung): > 100 µM
TGI (M19-MEL melanoma): > 100 µM
TGI (SNB-78 CNS): > 100 µM
TGI (XF 498 CNS): > 100 µM

COc1ccc(C(=O)COc2cccc(/C=C3\Oc4ccc5ccccc5c4C3=O)c2)cc1
GI50 (MDA-MB-435): 5.24 µM
TGI (MDA-MB-435): 20 µM

COc1cc2c(c(OC)n1)[C@]1(O)[C@H](O)[C@H](CN(C)C)[C@@H](c3ccccc3)[C@]1(c1ccc(C#N)cc1)O2
GI50 (MDA-MB-435): 0.0163 µM and 0.0143 µM
TGI (MDA-MB-435): 1.06 µM and 8.13 µM

COc1ccc(OC)c2c(/C=C/c3ccc(N(C)C)cc3)ccnc12
TGI (MDA-MB-435): > 10 µM
TGI (MDA-N): > 10 µM

COc1cc2c(cc1O)C1Cc3ccc(OC)c(O)c3C(C2)N1C (stereo unspecified)
TGI (MDA-MB-435): > 100 µM
TGI (MDA-N): > 100 µM

Nc1ccn(C2(CO)C=C(CO)C(O)C2O)c(=O)n1 (stereo unspecified)
TGI (DLD-1 colon): > 25.8 µM
TGI (DMS 273 small cell lung): > 25.8 µM
TGI (HOP-18 NSCLC): > 25.8 µM
TGI (M19-MEL melanoma): > 25.8 µM
TGI (SNB-78 CNS): > 25.8 µM

Cc1cc(C2CC(O)C(CO)O2)cc2c(=O)[nH]c(N)nc12 (stereo unspecified)
GI50 (MDA-MB-435): > 100 µM
TGI (MDA-MB-435): > 100 µM
